Values quoted from earlier work, collected in patent US20050186280A1, “Method for stabilizing a composition having a biologically active epidermal growth factor as an active ingredient” (Daewoong Pharm. Co., Ltd., priority 2000, published 2005).

Conditions: background statement; applied to wounds

epidermal growth factor [EGF]
half-life of EGF: about 1 hour
